For one assay, the target named is T1, KRAS (WT) (Homo sapiens, UniProt P01116).
T1 construct: Biotinylated KRAS protein amino acids 1-169 (produced at Erasca); made in house
Description: In-vitro RAS-RAF binding assay (RRB), HTRF/FRET. In kind it is biochemical. The conditions noted are these: Table 2, average of multiple runs of each compound; read-out: Inhibition of RAS-RAF Binding (in-vitro) KRAS (WT) IC50. A digest of the protocol: (§1)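 Compounds preincubated with terbium-labelled biotinylated KRAS (aa 1-169, 30 nM) before 60 min SOS1-catalysed exchange to GTPgS. Binding of the d2-labelled cRAF RBD (30 nM) is read as FRET at equilibrium in duplicate. Buffer: 50 mM HEPES pH 7.5, 100 mM NaCl, 1 mM MgCl2, 1 mM DTT.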

For assay [1], the target named is T2, KRas G12D fused to HiBiT peptide (Homo sapiens, UniProt P01116, G12D).
T2 construct: endogenous in cells; host or cells: AsPC-1 HiBiT knock-in single clone (Cas9 RNP + ssODN)
Description: ASPC-1 HiBit assay to determine G12D degradation. The assay is classed as cell-based. Particulars: AsPC-1 HiBiT cells, 24-hour incubation; read-out: ASPC-1 HiBit DC50 (C). A digest of the protocol:
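Homozygous AsPC-1 clone with N-terminal HiBiT knock-in on endogenous KRas G12D, 24 h compound exposure, top dose 10 μM, 3-fold, 10 points, 1% DMSO. Lytic HiBiT luminescence normalised to DMSO and inhibitor controls gives % degradation; DC50 from 4-parameter fit after hook-effect points removed.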

A further assay concerns the target KRAS G12D (Homo sapiens, UniProt P01116, G12D). Description: In-vitro RAS-RAF binding assay (RRB), HTRF/FRET. The assay is classed as biochemical. Particulars: Table 2, average of multiple runs of each compound; read-out: Inhibition of RAS-RAF Binding (in-vitro) KRAS (G12D) IC50. Details: Biotinylated KRAS protein amino acids 1-169 (produced at Erasca); made in house. The gist of the method: as §1

Consider 11 compounds from patent publication US20240293558A1, “KRAS INHIBITOR CONJUGATES” (Erasca, Inc., priority 2021, published 2024).

T1 sequence (P01116 1-169 isoform P01116-2): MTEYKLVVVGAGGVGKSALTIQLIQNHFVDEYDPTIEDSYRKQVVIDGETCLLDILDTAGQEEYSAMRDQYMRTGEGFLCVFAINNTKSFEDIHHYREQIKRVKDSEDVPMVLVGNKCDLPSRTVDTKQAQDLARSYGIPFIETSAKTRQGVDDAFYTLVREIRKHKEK
Sequence of KRAS G12D (P01116 1-169 isoform P01116-2 G12D): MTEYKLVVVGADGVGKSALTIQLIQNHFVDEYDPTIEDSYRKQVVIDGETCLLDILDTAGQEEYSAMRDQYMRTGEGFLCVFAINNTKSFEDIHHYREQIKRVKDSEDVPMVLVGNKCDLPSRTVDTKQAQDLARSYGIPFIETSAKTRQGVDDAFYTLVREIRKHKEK
T2 sequence (P01116 1-188 isoform P01116-2 G12D): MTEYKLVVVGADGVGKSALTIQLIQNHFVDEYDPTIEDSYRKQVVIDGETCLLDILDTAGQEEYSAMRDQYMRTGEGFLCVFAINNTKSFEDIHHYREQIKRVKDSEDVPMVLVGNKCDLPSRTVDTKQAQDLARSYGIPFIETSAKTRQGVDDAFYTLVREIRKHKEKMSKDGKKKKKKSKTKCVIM

Consider `C#Cc1c(F)ccc2cc(O)cc(-c3ncc4c(N5CC6CCC(C5)N6)nc(OCCN5CCC6(CC5)CN(c5cc([C@H](C(=O)N7C[C@H](O)C[C@H]7C(=O)N[C@@H](C)c7ccc(-c8ccccc8Cl)cc7)C(C)C)on5)C6)nc4c3F)c12` [Example 99, (2S,4R)-1-((2R)-2-(3-(7-(2-((4-(3,8-diazabicyclo[3.2.1]octan-3-yl)-7-(8-ethynyl-7-fluoro-3-hydroxynaphthalen-1-yl)-8-fluoropyrido[4,3-d]pyrimidin-2-yl)oxy)ethyl)-2,7-diazaspiro[3.5]nonan-2-yl)isoxazol-5-yl)-3-methylbutanoyl)-N—((S)-1-(2′-chloro-[1,1′-biphenyl]-4-yl)ethyl)-4-hydroxypyrrolidine-2-carboxamide], for which the IC50 is 1610 nM on KRAS (WT) and 16 nM on KRAS G12D. Also, the DC50 in assay [1] amounted to 264 nM.
For `C[C@H](NC(=O)[C@@H]1C[C@@H](O)CN1C(=O)[C@@H](NC(=O)CCOCCCN1CCC[C@H]1COc1nc(N2CC3CCC(C2)N3)c2cc(Cl)c(-c3ccc(F)c4sc(N)c(C#N)c34)c(F)c2n1)C(C)(C)C)c1ccc(-c2c(F)cc(F)cc2F)cc1` (single isomer, unassigned) [Example 97], in that order: 30 nM, 8.6 nM and 135 nM.
As for `CC(C)[C@@H](C(=O)N1C[C@H](O)C[C@H]1C(=O)N[C@@H](C)c1ccc(-c2c(F)cc(F)cc2F)cc1)c1cc(OCC2CCN(CCOc3nc(N4CC5CCC(C4)N5)c4cc(Cl)c(-c5ccc(F)c6sc(N)c(C#N)c56)c(F)c4n3)CC2)no1` [Example 71, (2S,4R)-1-((2R)-2-(3-((1-(2-((7-(2-amino-3-cyano-7-fluorobenzo[b]thiophen-4-yl)-4-(3,8-diazabicyclo[3.2.1]octan-3-yl)-6-chloro-8-fluoroquinazolin-2-yl)oxy)ethyl)piperidin-4-yl)methoxy)isoxazol-5-yl)-3-methylbutanoyl)-4-hydroxy-N-((S)-1-(2′,4′,6′-trifluoro-[1,1′-biphenyl]-4-yl)ethyl)pyrrolidine-2-carboxamide], the IC50 on KRAS (WT) was above 10000 nM; on KRAS G12D, 28 nM. For the same compound, the half-maximal degradation concentration (DC50) in assay [1] was determined as 582 nM.
For `C#Cc1c(F)ccc2cc(O)cc(-c3ncc4c(N5CC6CCC(C5)N6)nc(OCCN5CCC6(CC5)CN(c5cc([C@H](C(=O)N7C[C@H](O)C[C@H]7C(=O)N[C@@H](C)c7ccc(-c8c(F)cccc8F)cc7)C(C)C)on5)C6)nc4c3F)c12` [Example 16, (2S,4R)-1-[(2R)-2-[3-[7-[2-[4-(3,8-diazabicyclo[3.2.1]octan-3-yl)-7-(8-ethynyl-7-fluoro-3-hydroxy-1-naphthyl)-8-fluoro-pyrido[4,3-d]pyrimidin-2-yl]oxyethyl]-2,7-diazaspiro[3.5]nonan-2-yl]isoxazol-5-yl]-3-methyl-butanoyl]-N-[(1S)-1-[4-(2,6-difluorophenyl)phenyl]ethyl]-4-hydroxy-pyrrolidine-2-carboxamide], the values for the IC50 on KRAS (WT) and on KRAS G12D were 940 nM and 9.79 nM, respectively. Besides, the DC50 in assay [1] amounted to 69.7 nM.
Taken in the same sequence, the figures for `CC(C)[C@@H](C(=O)N1C[C@H](O)C[C@H]1C(=O)N[C@@H](C)c1ccc(-c2c(F)cccc2F)cc1)c1cc(OCC2CCN(CCOc3nc(N4CC5CCC(C4)N5)c4cc(Cl)c(-c5ccc(F)c6sc(N)c(C#N)c56)c(F)c4n3)CC2)no1` [Example 17, (2S,4R)-1-((2R)-2-(3-((1-(2-((7-(2-amino-3-cyano-7-fluorobenzo[b]thiophen-4-yl)-4-(3,8-diazabicyclo[3.2.1]octan-3-yl)-6-chloro-8-fluoroquinazolin-2-yl)oxy)ethyl)piperidin-4-yl)methoxy)isoxazol-5-yl)-3-methylbutanoyl)-N—((S)-1-(2′,6′-difluoro-[1,1′-biphenyl]-4-yl)ethyl)-4-hydroxypyrrolidine-2-carboxamide] were 2830 nM, 15.6 nM and 244 nM.
Regarding `CC(C)[C@@H](C(=O)N1C[C@H](O)C[C@H]1C(=O)N[C@@H](C)c1ccc(-c2c(F)cc(F)cc2F)cc1)c1cc(OCC2CCN(CCOc3nc(N4CC5CCC(C4)N5)c4cc(C(F)(F)F)c(-c5ccc(F)c6sc(N)c(C#N)c56)c(F)c4n3)CC2)no1` [Example 78, (2S,4R)-1-((2R)-2-(3-((1-(2-((7-(2-amino-3-cyano-7-fluorobenzo[b]thiophen-4-yl)-4-(3,8-diazabicyclo[3.2.1]octan-3-yl)-8-fluoro-6-(trifluoromethyl)quinazolin-2-yl)oxy)ethyl)piperidin-4-yl)methoxy)isoxazol-5-yl)-3-methylbutanoyl)-4-hydroxy-N-((S)-1-(2′,4′,6′-trifluoro-[1,1′-biphenyl]-4-yl)ethyl)pyrrolidine-2-carboxamide], the IC50 at KRAS (WT) was 1670 nM; at KRAS G12D it was 25.5 nM. The DC50 in assay [1] came to 294 nM.
In the case of `CC(C)[C@@H](C(=O)N1C[C@H](O)C[C@H]1C(=O)N[C@@H](C)c1ccc(-c2c(F)cccc2F)cc1)c1cc(OCC2(F)CCN(CCOc3nc(N4CC5CCC(C4)N5)c4cc(Cl)c(-c5ccc(F)c6sc(N)c(C#N)c56)c(F)c4n3)CC2)no1` [Example 73, (2S,4R)-1-((2R)-2-(3-((1-(2-((7-(2-amino-3-cyano-7-fluorobenzo[b]thiophen-4-yl)-4-(3,8-diazabicyclo[3.2.1]octan-3-yl)-6-chloro-8-fluoroquinazolin-2-yl)oxy)ethyl)-4-fluoropiperidin-4-yl)methoxy)isoxazol-5-yl)-3-methylbutanoyl)-N-((S)-1-(2′,6′-difluoro-[1,1′-biphenyl]-4-yl)ethyl)-4-hydroxypyrrolidine-2-carboxamide], the figures for the IC50 on KRAS (WT) and at KRAS G12D were above 10000 nM and 47.6 nM, respectively. In assay [1], the 50% degradation concentration (DC50) is 349 nM.
For the compound `C#Cc1c(F)ccc2cc(O)cc(-c3ncc4c(N5CC6CCC(C5)N6)nc(OCCN5CCC(Oc6cc([C@H](C(=O)N7C[C@H](O)C[C@H]7C(=O)N[C@@H](C)c7ccc(-c8c(F)cccc8F)cc7)C(C)C)on6)CC5)nc4c3F)c12` [Example 100, (2S,4R)-1-((2R)-2-(3-((1-(2-((4-(3,8-diazabicyclo[3.2.1]octan-3-yl)-7-(8-ethynyl-7-fluoro-3-hydroxynaphthalen-1-yl)-8-fluoropyrido[4,3-d]pyrimidin-2-yl)oxy)ethyl)piperidin-4-yl)oxy)isoxazol-5-yl)-3-methylbutanoyl)-N—((S)-1-(2′,6′-difluoro-[1,1′-biphenyl]-4-yl)ethyl)-4-hydroxypyrrolidine-2-carboxamide], the IC50 on KRAS (WT) came to 2070 nM; at KRAS G12D it was 14 nM. In addition, the DC50 in assay [1] turned out to be 197 nM.
Taken in the same sequence, the figures for `CC(C)[C@@H](C(=O)N1C[C@H](O)C[C@H]1C(=O)N[C@@H](C)c1ccc(-c2c(F)cccc2F)cc1)c1cc(OCC2(C)CCN(CCOc3nc(N4CC5CCC(C4)N5)c4cc(C(F)(F)F)c(-c5ccc(F)c6sc(N)c(C#N)c56)c(F)c4n3)CC2)no1` [Example 74, (2S,4R)-1-((2R)-2-(3-((1-(2-((7-(2-amino-3-cyano-7-fluorobenzo[b]thiophen-4-yl)-4-(3,8-diazabicyclo[3.2.1]octan-3-yl)-8-fluoro-6-(trifluoromethyl)quinazolin-2-yl)oxy)ethyl)-4-methylpiperidin-4-yl)methoxy)isoxazol-5-yl)-3-methylbutanoyl)-N-((S)-1-(2′,6′-difluoro-[1,1′-biphenyl]-4-yl)ethyl)-4-hydroxypyrrolidine-2-carboxamide] were 962 nM, 18.1 nM and 185 nM.
Take `C[C@H](NC(=O)[C@@H]1C[C@@H](O)CN1C(=O)[C@@H](NC(=O)CCOCCCN1CCC[C@H]1COc1nc(N2CC3CCC(C2)N3)c2cc(C(F)(F)F)c(-c3ccc(F)c4sc(N)c(C#N)c34)c(F)c2n1)C(C)(C)C)c1ccc(-c2c(F)ccc(F)c2F)cc1` [Example 93, (2S,4R)-1-((2S)-2-(3-(3-((2S)-2-((((7S)-7-(2-amino-3-cyano-7-fluorobenzo [b]thiophen-4-yl)-4-(3,8-diazabicyclo [3.2.1]octan-3-yl)-8-fluoro-6-(trifluoromethyl)quinazolin-2-yl)oxy)methyl)pyrrolidin-1-yl)propoxy)propanamido)-3,3-dimethylbutanoyl)-4-hydroxy-N—((S)-1-(2′,3′,6′-trifluoro-[1,1′-biphenyl]-4-yl)ethyl)pyrrolidine-2-carboxamide]: the values for the IC50 on KRAS (WT) and on KRAS G12D were 54 nM and 9.1 nM, respectively. Besides, the DC50 in assay [1] came out at 34 nM.
As for `C[C@H](NC(=O)[C@@H]1C[C@@H](O)CN1C(=O)[C@@H](NC(=O)CCOCCCN1CCC[C@H]1COc1nc(N2CC3CCC(C2)N3)c2cc(Cl)c(-c3ccc(F)c4sc(N)c(C#N)c34)c(F)c2n1)C(C)(C)C)c1ccc(-c2ccccc2Cl)cc1` [Example 96, (2S,4R)-1-((2S)-2-(3-(3-((2S)-2-((((7R)-7-(2-amino-3-cyano-7-fluorobenzo[b]thiophen-4-yl)-4-(3,8-diazabicyclo[3.2.1]octan-3-yl)-6-chloro-8-fluoroquinazolin-2-yl)oxy)methyl)pyrrolidin-1-yl)propoxy)propanamido)-3,3-dimethylbutanoyl)-N—((S)-1-(2′-chloro-[1,1′-biphenyl]-4-yl)ethyl)-4-hydroxypyrrolidine-2-carboxamide], the values for the IC50 at KRAS (WT) and at KRAS G12D were 156 nM and 9.2 nM, respectively. Besides, in assay [1], the DC50 amounted to 75 nM.
